According to article PMC7766155, “Improved Stability and Activity of a Marine Peptide-N6NH2 against Edwardsiella tarda and Its Preliminary Application in Fish” (Marine Drugs, 2020):
Values after ≈ are worked out from the molar mass of the structure shown. Values joined by “and” are separate entries in the source; they are usually repeats but may differ in a detail not shown here. Equal values may be shown once. Read-outs that look alike come from different tables or passages of the source. Where a SMILES comes first, the peptide text is derived from it. Bridges are numbered along the chain shown (N, C = ends).

Tests used:
E. tarda [1] = test: Kirby-Bauer disk diffusion susceptibility; format: cell-based, Edwardsiella tarda; settings: disc diffusion, MHA, 37 °C 18 h, CLSI standard; 27 antibiotics; Supplementary Table S2
Procedure: The susceptibility of E. tarda to antibiotics was determined by the Kirby-Bauer disk diffusion method according to Clinical Laboratory Standards Institute (CLSI). E. tarda was cultured in TSB medium (10 mL) at 28 °C overnight. The MHA petri dish plates were seeded with a 250 μL bacterial solution (OD600nm = 1.0). […] The diameter of the bacterial inhibition zone was measured, and the results were determined according to the standard of CLSI.

RAW 264.7 macrophages = format: cell-based, mouse; settings: 48 h
Procedure: The colorimetric MTT assay was used to determine the effect of peptides on the viability of murine peritoneal RAW 264.7 macrophage cells. Macrophage cells were added into 96-well plates (5 × 10^3 cells/well) and incubated for 24 h at 37 °C (5% (v/v) CO2/air). A series of peptide solutions were added into the cells and incubated for 48 h. The untreated cells were used as the control (Acontrol). The MTT solution was added into plates, incubated for 4 h, and then removed from plates. Dimethyl sulfoxide (DMSO) was then added into plates and the absorbance was measured at 570 nm in a spectrophotometer. The cell viability was calculated using the following formula: Survival rate (%) = […] × 100.

E. tarda [2] = test: Fish peritonitis model, bacterial translocation (organ load); format: in vivo, O. niloticus; settings: 1.29 mg/kg norfloxacin i.p. once; 24 h after treatment
Procedure: Sixty fish were randomly divided into 6 groups (10 fish/group). […] The remaining untreated group served as negative control. The fish injected with saline were used as the blank control. The challenge and treatment were performed as described above. […] Other fish were used to analyze the effects on tissues and immune genes.

E. tarda cells = test: TEM ultrastructure; format: cell-based, Edwardsiella tarda; settings: 4 × MIC for 2 h, 1 × 10^8 CFU/mL
Procedure: Mid-log phase E. tarda cells (1 × 10^8 CFU/mL) were incubated with 4 × MIC N6 or N6NH2 for 2 h at 37 °C. The bacterial cells were then centrifuged, washed three times with 0.1 M PBS (pH 7.2) and fixed overnight at 4 °C with 2.5% glutaraldehyde. After washing twice with PBS, the cells were post-fixed with 1% osmium tetroxide (OsO4) for 2 h, dehydrated in a graded ethanol series (from 50% to 100%) for 15 min each time and dried by CO2. The cell samples were sputtered with gold-palladium and observed on a QUANTA200 electron microscopy (FEI, Philips, The Netherlands).
The bacterial cells were treated with peptides as described above, fixed with 2.5% glutaraldehyde at 4 °C overnight and post-fixed with 1% OsO4 for 1 h. After washing three times with PBS, the cells were dehydrated with a graded acetone series (50%, 70%, 85%, 95% and 100%, for 7 min each time) and immersed in mixtures of acetone and resin (3:1, 1:1 and 1:3, 40 min each time). The samples were infiltrated with a pure epoxy resin overnight, embedded in capsules containing embedding medium and polymerized at 45 °C for 3 h and at 65 °C for 24 h, respectively. Thin sections were cut using an ultramicrotome, stained with 1% uranyl acetate and examined by a JEM1400 (JEDL, Tokyo, Japan).

[3] = tested on: inner membrane of E. tarda; test: Inner membrane penetration, PI staining, flow cytometry; format: cell-based, Edwardsiella tarda; settings: norfloxacin-treated control, all time points of Figure 3B
Procedure: After washing twice with PBS, the cells were incubated with PI (50 μg/mL) for 15 min and analyzed using a FACS Calibur Flow Cytometer (BD, San Jose, CA, USA).

E. tarda [4] = test: pH stability (residual antibacterial activity, inhibition zone); format: physicochemical, Edwardsiella tarda; settings: pH values of 2–10, 3 h incubation; N6 128 μg/mL, norfloxacin 10 μg/mL; inhibition zone method vs E. tarda
Procedure: (§1) To evaluate the thermal stability of peptides, N6 and N6NH2 were incubated for 1 h at 4, 20, 40, 60, 80 and 100 °C. To measure the pH stability, peptides were incubated for 3 h in 100 mM glycine-HCl buffer (pH 2.0), sodium acetate buffer (pH 4.0), sodium phosphate buffer (pH 6.0), Tris-HCl buffer (pH 8.0) or glycine-NaOH buffer (pH 10.0). In addition, peptides were incubated for 4 h at 37 °C in pepsin (3,000 U/mg, pH 2.0) and trypsin (250 U/mg, pH 8.0) (10:1, w/w) solutions, respectively. […] After treatment, 30 μL of solutions were taken out to determine the antibacterial activity of peptides against E. tarda by the inhibition zone method. The untreated peptides were used as the control. All tests were conducted in triplicate.

E. tarda [5] = test: Fish peritonitis model, survival; format: in vivo, O. niloticus; settings: 1.29 mg/kg norfloxacin i.p. once
Procedure: The fish (O. niloticus, Gift strain, 20 g mean weight) were purchased from Beijing Fisheries Technology Extension Center, Hainan Station, China and were acclimated at 25 ± 1 °C. The fish were fed twice daily with commercial pellets for two weeks before experiments.
O. niloticus (6 fish/group) were intraperitoneally injected with LC100 of E. tarda, followed 30 min later by 200 µL N6NH2 (2.5, 5, and 10 mg/kg, respectively). Norfloxacin was used as a positive control. Fish injected with only bacteria or saline served as negative (untreated) or blank (unchallenged) controls, respectively. […] The fish survival rate was recorded daily for 5 d. Two independent experiments were conducted, including pre-experiment and formal experiment.

[6] = tested on: Escherichia coli, S. typhimurium, S. enteritidis and S. pullorum; test: organism not typed; format: cell-based; settings: range over other Gram-negative strains of Table 2; read-out: MIC
Procedure: (§2) All tests were conducted in triplicate.

E. tarda [7] = test: Fish peritonitis model, histopathology; format: in vivo, O. niloticus; settings: N6NH2 (10 mg/kg) or norfloxacin 1.29 mg/kg; hematoxylin and eosin, light microscope; 3 fish/group
Procedure: The spleen, kidney, liver, intestine and brain samples (3 fish/group) were used for tissue section observation. After 24 h of fixation, all samples were dehydrated with 75–95% ethanol, embedded in paraffin and cut to 6 μm thin sections. Sections were stained with hematoxylin and eosin and observed by a light microscope.

E. tarda [8] = test: Thermal stability (residual antibacterial activity, inhibition zone); format: physicochemical, Edwardsiella tarda; settings: incubated 1 h at 20, 40, 60, 80 or 100 °C; N6NH2 64 μg/mL, norfloxacin 10 μg/mL; inhibition zone method; triplicate
Procedure: as §1

Edwardsiella tarda = test: MIC, broth microdilution
Staphylococcus hyicus = test: microbe, parasite or virus in culture; format: cell-based
Procedure: as §2

[9] = LPS binding, BODIPY-TR-cadaverine displacement; parameters: species or system E. coli; settings: 0.5 µM LPS, 5 μM BC, Tris buffer pH 7.4; 0.049 μM to 50 μM; excitation/emission 580/620 nm
E. coli CVCCO157 = settings: broth microdilution, MHB, 1 × 10^5 CFU/mL, 37 °C 18–24 h, n = 3; some N6 data from ref 19
[10] = tested on: Pseudomonas aeruginosa CICC21630; settings: CICC21630
[11] = tested on: Gram-negative bacteria (except Pseudomonas aeruginosa CICC21630); test: MIC, range over strains; format: cell-based; settings: range over Gram-negative strains of Table 2
Procedure: as §2

S. aureus ATCC546 = settings: ATCC546
E. coli CVCC1515 = settings: CVCC1515
S. pullorum CVCC1789 = settings: CVCC1789
S. enteritidis CVCC3377 = settings: CVCC3377
E. tarda [12] = format: cell-based, Edwardsiella tarda
Procedure: as §2

E. tarda and A. veronii = format: cell-based
Procedure: as §2

[13] = tested on: Staphylococcus aureus ATCC43300; settings: ATCC43300
S. aureus ATCC25923 = settings: ATCC25923

bacitracin
susceptibility of E. tarda to antibiotics (E. tarda [1]): resistance

O=C1OCCN1/N=C/c1ccc([N+](=O)[O-])o1 [furazolidone]
susceptibility of E. tarda to antibiotics (E. tarda [1]): resistance

CC(C)[C@@H]1NC(=O)CNC(=O)[C@H](CC(N)=O)NC(=O)[C@H](CCCNC(=N)N)NC(=O)[C@H](Cc2ccc(O)cc2)NC(=O)[C@H](C(C)C)NC(=O)[C@@H](NC(=O)[C@@H](NC(=O)[C@H](CC(N)=O)NC(=O)[C@H](Cc2c[nH]c3ccccc23)NC(=O)[C@H](C)NC(=O)[C@H](Cc2ccccc2)NC(=O)CN)C(C)C)CSSC[C@@H](C(=O)N[C@@H](Cc2cnc[nH]2)C(=O)N[C@@H](CCCNC(=N)N)C(=O)N[C@@H](CCCNC(=N)N)C(=O)N[C@@H](C)C(=O)N[C@@H](CC(N)=O)C(N)=O)NC(=O)[C@H](C(C)C)NC(=O)[C@H](CCCNC(=N)N)NC1=O [Peptide N6NH2] (H-GFAWNVCVYRNGVRVCHRRAN-NH2; disulfide 7-16)
cell survival rate (RAW 264.7 macrophages): > 93.35%

CC(C)[C@@H]1NC(=O)CNC(=O)[C@H](CC(N)=O)NC(=O)[C@H](CCCNC(=N)N)NC(=O)[C@H](Cc2ccc(O)cc2)NC(=O)[C@H](C(C)C)NC(=O)[C@@H](NC(=O)[C@@H](NC(=O)[C@H](CC(N)=O)NC(=O)[C@H](Cc2c[nH]c3ccccc23)NC(=O)[C@H](C)NC(=O)[C@H](Cc2ccccc2)NC(=O)CN)C(C)C)CSSC[C@@H](C(=O)N[C@@H](Cc2cnc[nH]2)C(=O)N[C@@H](CCCNC(=N)N)C(=O)N[C@@H](CCCNC(=N)N)C(=O)N[C@@H](C)C(=O)N[C@@H](CC(N)=O)C(=O)O)NC(=O)[C@H](C(C)C)NC(=O)[C@H](CCCNC(=N)N)NC1=O [Peptide N6] (H-GFAWNVCVYRNGVRVCHRRAN-OH; disulfide 7-16)
cell survival rate (RAW 264.7 macrophages): > 93.35%

CCn1cc(C(=O)O)c(=O)c2cc(F)c(N3CCNCC3)cc21 [Norfloxacin]
number of bacteria in organs (blood, spleen, kidney, liver) (E. tarda [2]): did not decrease in any organs except the liver | abnormal cells (TEM) (E. tarda cells): not significantly affected | percentage of E. tarda stained with PI [3]: less than 1% | antibacterial activity at different pH values (E. tarda [4]): strong antibacterial activity | survival rate of fish (E. tarda [5]; 0.5 h after E. tarda 1.0 × 10^9 CFU/mL i.p., within 2 d, 6 fish/group): 16.7% | survival rate of fish (E. tarda [5]; time not stated in the sentence (survival recorded for 5 d)): 16.7% | MIC [6]: 0.06 to 1 µg/mL (≈ 0.188 to 3.13 µM) | histological findings in liver, kidney and intestine (E. tarda [7]): obvious pathological changes were found in organs | antimicrobial activity against E. tarda after exposure to temperature (E. tarda [8]): did not change | MIC (Edwardsiella tarda): 0.5 µg/mL and 1.57 µM | MIC (Staphylococcus hyicus; Staphylococcus hyicus, range over S. hyicus strains of Table 2, read-out: MIC): 4 to 16 µg/mL (≈ 12.5 to 50.1 µM)

CC1(C)S[C@@H]2[C@H](NC(=O)[C@H](N)c3ccccc3)C(=O)N2[C@H]1C(=O)O [ampicillin, reference compound]
binding to LPS (displacement of BC probe) [9]: neither ampicillin nor norfloxacin replaced the BC probe or bound to LPS

CC(C)[C@@H]1NC(=O)CNC(=O)[C@H](CC(N)=O)NC(=O)[C@H](CCCNC(=N)N)NC(=O)[C@H](Cc2ccc(O)cc2)NC(=O)[C@H](C(C)C)NC(=O)[C@@H](NC(=O)[C@@H](NC(=O)[C@H](CC(N)=O)NC(=O)[C@H](Cc2c[nH]c3ccccc23)NC(=O)[C@H](C)NC(=O)[C@H](Cc2ccccc2)NC(=O)CN)C(C)C)CSSC[C@@H](C(=O)N[C@@H](Cc2c[nH]cn2)C(=O)N[C@@H](CCCNC(=N)N)C(=O)N[C@@H](CCCNC(=N)N)C(=O)N[C@@H](C)C(=O)N[C@@H](CC(N)=O)C(N)=O)NC(=O)[C@H](C(C)C)NC(=O)[C@H](CCCNC(=N)N)NC1=O [Peptide N6NH2] (H-GFAWNVCVYRNGVRVCHRRAN-NH2; disulfide 7-16)
MIC (E. coli CVCCO157): 0.646 µM (≈ 1.6 µg/mL) | MIC [10]: 10.34 µM (≈ 25.6 µg/mL) | MIC [11]: 0.8 to 3.2 µg/mL | MIC (S. hyicus 15095): 1.29 µM (≈ 3.19 µg/mL) | MIC (S. aureus ATCC546): 2.58 µM (≈ 6.39 µg/mL) | MIC (E. coli CVCC1515): 0.323 µM (≈ 0.799 µg/mL) | MIC (S. pullorum CVCC1789): 1.29 µM (≈ 3.19 µg/mL) | MIC (S. enteritidis CVCC3377): 0.323 µM (≈ 0.799 µg/mL) | MBC (E. tarda [12]): 6.4 µg/mL (≈ 2.59 µM) | MIC (E. tarda and A. veronii): 0.65 to 1.29 µM | MIC [13]: 2.58 µM (≈ 6.39 µg/mL) | MIC (S. hyicus 437-2): 5.17 µM (≈ 12.8 µg/mL) | MIC (S. aureus ATCC25923): 5.17 µM (≈ 12.8 µg/mL) | MIC (Staphylococcus hyicus): 3.2 to 12.8 µg/mL

CC1(C)S[C@@H]2[C@H](NC(=O)[C@H](N)c3ccc(O)cc3)C(=O)N2[C@H]1C(=O)O [amoxicillin]
susceptibility of E. tarda to antibiotics (E. tarda [1]): resistance
